Assay results as given in ChEMBL document CHEMBL4414660, “Effect of Modifier Structure on the Activation of Leukotriene A4 Hydrolase Aminopeptidase Activity” (J Med Chem, 2019).

Tests used:
[1] = molecular target: T1, Leukotriene A-4 hydrolase (Homo sapiens, UniProt P09960); test: Inhibition of N-terminal (His)6 and Xpress-tagged LTA4H (unknown origin) expressed in Escherichia coli BL21(DE3) cells assessed as reduction in aminopeptidase activity by measuring p-nitroanilide release using L-Alanine-p-nitroanilide incubated for 10 mins by UV plate reader based assay
T1 sequence (P09960 whole entry): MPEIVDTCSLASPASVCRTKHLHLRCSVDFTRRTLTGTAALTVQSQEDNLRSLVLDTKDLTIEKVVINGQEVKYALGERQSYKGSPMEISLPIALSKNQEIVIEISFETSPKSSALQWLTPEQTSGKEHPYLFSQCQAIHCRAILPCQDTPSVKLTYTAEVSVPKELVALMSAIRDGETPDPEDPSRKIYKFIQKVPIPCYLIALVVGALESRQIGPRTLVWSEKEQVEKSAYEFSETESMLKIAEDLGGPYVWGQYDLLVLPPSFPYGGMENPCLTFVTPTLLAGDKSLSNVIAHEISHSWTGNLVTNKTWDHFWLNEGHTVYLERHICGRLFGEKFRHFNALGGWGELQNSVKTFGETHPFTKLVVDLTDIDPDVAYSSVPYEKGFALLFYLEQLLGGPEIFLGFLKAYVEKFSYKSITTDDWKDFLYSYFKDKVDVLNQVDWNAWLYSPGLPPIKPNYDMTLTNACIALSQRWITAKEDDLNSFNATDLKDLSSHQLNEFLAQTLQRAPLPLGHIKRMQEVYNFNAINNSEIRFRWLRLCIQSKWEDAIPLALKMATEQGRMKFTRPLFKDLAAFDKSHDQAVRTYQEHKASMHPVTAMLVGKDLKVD

[2] = molecular target: T1, Leukotriene A-4 hydrolase; test: Activation of N-terminal (His)6 and Xpress-tagged LTA4H (unknown origin) expressed in Escherichia coli BL21(DE3) cells assessed as increase in aminopeptidase activity by measuring p-nitroanilide release using L-Alanine-p-nitroanilide incubated for 10 mins by UV plate reader based assay

## COc1ccccc1Cc1ccc(-c2csc(N)n2)cc1
[1]
  IC50: 0.1 µM

## Nc1nc(-c2ccc(Cc3cccc(C(F)(F)F)c3)cc2)cs1
[2]
  AC50: 69 µM

## Cc1cccc(Cc2ccc(-c3csc(N)n3)cc2)c1
[2]
  AC50: 4.81 µM
